Patent US5550119A, “Phosphono substituted tetrazole derivatives as ECE inhibitors” (Ciba-Geigy Corporation, priority 1995, dated 1996)

Assays:
plasma ANF concentration = assay: effect on rat plasma ANF concentration; type: in vivo, Male Sprague-Dawley rats; settings: about 10 mg/kg p.o., in 10% ethanol/polyethylene glycol 400; ANF infused 450 ng/kg/min i.v.
Procedure: The effect of the compounds of the invention on rat plasma ANF concentration can be determined as follows:
Male Sprague-Dawley rats (275-390 g) are anesthetized with ketamine (150 mg/kg)/acepromazine (10%) and instrumented with catheters in the femoral artery and vein to obtain blood samples and infuse ANF, respectively. The rats are tethered with a swivel system and are allowed to recover for 24 hours before being studied in the conscious, unrestrained state.
In this assay, plasma ANF levels are determined in the presence and absence of NEP inhibition. On the day of study, all rats are infused continuously with ANF at 450 ng/kg/min. i.v. for the entire 5 hours of the experiment. Sixty minutes after beginning the infusion, blood samples for baseline ANF measurements are obtained (time 0) and the rats are then randomly divided into groups treated with the test compound or vehicle. Additional blood samples are taken 30, 60, 120, 180 and 240 minutes after administration of the test compound.
Plasma concentrations are determined by a specific radioimmunoassay. […] The supenatant is decanted and the pellets counted in a gamma counter. […] Plasma ANF levels are expressed as a percent of those measured in vehicle-treated animals which received ANF alone (450 ng/kg/min i.v.).

[1] = test system: DOCA-salt hypertensive rats; assay: antihypertensive effect in DOCA-salt hypertensive rats; type: in vivo, rat; settings: 10 mg/Kg p.o., in PEG 400
Procedure: The antihypertensive effect can be determined in desoxycorticosterone acetate (DOCA)-salt hypertensive rats.
DOCA-salt hypertensive rats (280-380 g) are prepared by the standard method. Rats underwent a unilateral nephrectomy and one week later are implanted with silastic pellets containing 100 mg/kg of DOCA. The rats are maintained on 1% NaCl/0.2% KCl drinking water for three to five weeks until sustained hypertension is established. The antihypertensive activity is evaluated at this time.
Two days before an experiment, the rats are anesthetized with methoxyflurane and instrumented with catheters in the femoral artery to measure arterial blood pressure. Forty-eight hours later, baseline arterial pressure and heart rate are recorded during a 1 hour period. The test compound or vehicle is then administered and the same cardiovascular parameters are monitored for an additional 5 hours.

[2] = biological target: T1, porcine endothelin converting enzyme (Sus scrofa, UniProt A0A8W4FBH0); assay: in vitro inhibition of porcine endothelin-converting enzyme (ECE); type: biochemical; settings: partially purified from porcine primary aortic endothelial cells
T1 construct: partially purified from porcine primary aortic endothelial cells by DE52 anion exchange column; endogenous in cells; host or cells: porcine primary aortic endothelial cells
T1 sequence (A0A8W4FBH0 1-751): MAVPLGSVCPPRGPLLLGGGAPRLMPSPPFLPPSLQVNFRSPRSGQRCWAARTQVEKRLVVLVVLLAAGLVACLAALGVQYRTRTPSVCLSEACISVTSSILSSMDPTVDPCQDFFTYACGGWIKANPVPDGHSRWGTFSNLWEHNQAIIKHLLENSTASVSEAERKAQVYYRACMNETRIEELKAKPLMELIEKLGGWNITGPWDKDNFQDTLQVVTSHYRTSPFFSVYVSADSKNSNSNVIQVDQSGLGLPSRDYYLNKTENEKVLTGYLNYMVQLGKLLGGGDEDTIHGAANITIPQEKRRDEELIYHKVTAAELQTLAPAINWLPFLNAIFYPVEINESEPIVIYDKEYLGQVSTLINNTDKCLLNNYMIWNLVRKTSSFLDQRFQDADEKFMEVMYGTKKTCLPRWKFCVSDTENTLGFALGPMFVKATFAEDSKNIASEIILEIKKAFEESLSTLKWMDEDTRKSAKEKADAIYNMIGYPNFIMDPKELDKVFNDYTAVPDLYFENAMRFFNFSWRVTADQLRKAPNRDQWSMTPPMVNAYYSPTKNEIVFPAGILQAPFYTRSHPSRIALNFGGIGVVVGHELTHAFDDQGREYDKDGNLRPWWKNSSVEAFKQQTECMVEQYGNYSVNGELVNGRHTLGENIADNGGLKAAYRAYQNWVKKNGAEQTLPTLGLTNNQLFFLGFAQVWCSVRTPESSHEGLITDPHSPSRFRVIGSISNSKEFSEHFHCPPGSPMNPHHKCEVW
Source text: Endothelin converting enzyme (ECE) is partially purified from porcine primary aortic endothelial cells by DE52 anion exchange column chromatrography and its activity is quantified by radioimmunoassay as described in Anal. Biochem. 213, 434-436 (1993). The ECE inhibition can be determined as described in Biochem. Mol. Biol. Int. 31, (5), 861-867 (1993), by radioimmunoassay to measure ET-1 formed from big ET-1.

[3] = test system: big ET-1 induced pressor response; assay: inhibition of big ET-1 induced pressor response in conscious spontaneously hypertensive rats (SHR); type: in vivo; settings: continuous infusion of 5 mg/Kg/day; over 60 minutes; vs vehicle control
Procedure: ECE inhibition can also be determined in vivo by measuring the inhibition big ET-1 induced pressor response in conscious spontaneously hypertensive rats (SHR), e.g. as described in Biochem. Biophys. Res. Communic. 204, 407-412 (1994).
Male SHR (16-18 weeks of age) are administered either test compound or vehicle (1M NaHCO3) via an osmotic minipump implated subcutaneously. On day 5 femoral arterial and venous catheters are placed in anesthetized rats for the measurement of MAP (mean arterial pressure) and for test compound administration, respectively. After a 48 hour recovery period, MAP is recorded (day 7) through the arterial catheter connected to a pressure transducer. Blood pressure and heart rate are allowed to stabilize for 30 minutes before ganglion blockade is performed using chlorisondamine ([…] i.v.). Approximately 15 minutes later, a bolus dose of big ET-1 (0.25 nmol/kg i.v.) is administered to both vehicle- and test compound treated rats. The change in blood pressure in response to big ET-1 is then compared between the two groups of rats at 1, 5, 10, 15, 30 and 60 min after dosing using a two-way ANOVA.

[4] = test system: spontaneous hypertensive rats; assay: mean arterial pressure of spontaneous hypertensive rats using telemetry; type: in vivo, rat; settings: continuous infusion of 5 mg/Kg/day for 13 days, no exogenous big ET-1

IC50 [2] [nM]	Compound	plasma ANF levels (plasma ANF concentration)	blood pressure [1]	reduction of big ET-1 induced pressor response [3]	mean arterial pressure [4]
	O=P(CN[C@@H](Cc1ccc(-c2ccccc2)cc1)c1nnn[nH]1)(Oc1ccccc1)Oc1ccccc1	significant increases in plasma ANF levels	significant reduction in blood pressure		
~1100	O=P(O)(O)CN[C@@H](Cc1ccc(-c2ccccc2)cc1)c1nnn[nH]1 [(S)-[2-(Biphenyl-4-yl)-1-(1H-tetrazol-5-yl)-ethylamino]-methylphosphonic acid]			significant difference in reduction of big ET-1 induced pressor response	sustained reduction in the mean arterial pressure
